From publication PMC9834240, “Senescent cells perturb intestinal stem cell differentiation through Ptk7 induced noncanonical Wnt and YAP signaling” (Nature Communications, 2023)

What was measured:
[1] = system: mouse intestinal organoids; assay: cystic organoid percentage, co-culture with quiescent or senescent intestinal fibroblasts; assay type: cell-based; design: key: % = 100×(1 − budding organoids treated/budding organoids control); settings: relative to DMSO = 0
Protocol: (§1) 3-4 biological replicates of organoids from different mice were used per condition. Organoids were cultured in the indicated media, inhibitors, antibodies and/or recombinant proteins for 5 d and fixed in 4% formaldehyde in PBS. Organoids were imaged with a 4× Plan Fluor objective (NA: 0.13, Nikon) on a Nikon Ti-E inverted microscope equipped with a Neo scMOS camera (Andor, Oxford Instruments), a linear encoded automated stage (Applied Scientific Instrumentation), all run by NIS Elements software (Nikon). Organoids were imaged in brightfield and images covering the whole well were stitched and focused into one image projection with an extended depth of focus module (EDF; Nikon). One hundred to 200 organoids per replicate per condition were counted and used for quantification. The number of budding organoids in each condition was normalized by the number of budding organoids in untreated or DMSO treated controls to calculate cystic organoid percentage:1 Cysticorganoidpercentage=100×1−Numberofbuddingorganoidsfromexperiment/Numberofbuddingorganoidsfromcontrol
Mouse intestinal fibroblasts were purchased from Cell Biologics (#C57-6231) and cultured in Complete Fibroblast Medium (Cell Biologics, M2267) at 37 °C and 5% CO2. Cellular quiescence and senescence in mouse intestinal fibroblasts were induced by the similar methods described earlier for MEFs with minor modifications. Briefly, cellular quiescence was induced by culturing the fibroblasts in low serum (0.5% FBS), and cellular senescence was induced by 500 nM doxorubicin treatment for 5 days (doxorubicin; Sigma-Aldrich, #44583). Once cellular quiescence or senescence was induced, MEFs were maintained at 37 °C, 5% CO2, and 3% O2 for another 5 days. The quiescent or senescent fibroblasts were dissociated using 0.05% Trypsin-EDTA (Gibco, #25300-054) and counted for seeding. The same number of quiescent and senescent fibroblasts (5.2 × 10^4 cells) were mixed with intestinal organoids making total volume of 20 μl of Matrigel: organoid culture media mix, which was mounted on a 48 well plate.

[2] = system: mouse intestinal organoids; assay: cystic organoid percentage, organoids in conditioned media (SCM/QCM) with or without inhibitors or antibodies; assay type: cell-based; settings: SCM-exposed organoids
Protocol: Twenty-four hours before collecting conditioned media (CM), MEFs were washed with serum-free DMEM twice, and serum-free DMEM was added. After 24 h in serum-free DMEM, this CM was collected, filtered using Steriflip filters (Millipore, #SE1M179M6) to remove cell debris, and concentrated using centrifugal filter units (Amicon ultra-15 centricon; Millipore, # UFC900324). […] CM was filtered and dialyzed for 24–48 h to remove the inhibitors before concentration.
The jejunum part of the small intestine was removed, flushed with PBS, opened longitudinally, then cut into 0.5 cm pieces. The collected tissues were washed with ice cold PBS multiple times by vortexing and incubated in PBS containing 2.5 mM EDTA for 5 min at 37 °C. After gentle shaking and aspiration, tissues were incubated in PBS containing 5 mM EDTA for 7 min at 37 °C. Tissues were then washed with PBS to remove EDTA and vigorously shaken to release crypts. The released crypts were passed through 70 μm strainers, washed with PBS, and pelleted by centrifugation at 200 × g.
as §1

cyclosporin A
cystic organoids (sheet SF.5d) ([1]; 1 uM CsA, no fibroblasts, replicate 1): -0.1051 | cystic organoids (sheet SF.5d) ([1]; 1 uM CsA, no fibroblasts, replicate 2): -6.5368 | cystic organoids (sheet SF.5d) ([1]; 1 uM CsA, no fibroblasts, replicate 3): 5.663 | cystic organoids (sheet SF.5d) ([1]; Q + 1um CsA (quiescent fibroblasts), replicate 1): 19.8791 | cystic organoids (sheet SF.5d) ([1]; Q + 1um CsA (quiescent fibroblasts), replicate 2): 16.6126 | cystic organoids (sheet SF.5d) ([1]; Q + 1um CsA (quiescent fibroblasts), replicate 3): 9.858 | cystic organoids (sheet SF.5d) ([1]; SEN + 1uM CsA (senescent fibroblasts), replicate 1): 45.7387 | cystic organoids (sheet SF.5d) ([1]; SEN + 1uM CsA (senescent fibroblasts), replicate 2): 66.7022 | cystic organoids (sheet SF.5d) ([1]; SEN + 1uM CsA (senescent fibroblasts), replicate 3): 42.5108 | effect on cystic organoid phenotype [2]: had no effect on this phenotype
